This passage reports IC50 results from patent US20260216198A1, “GPR35 MODULATORS” (ThirtyFiveBio Limited, priority 2023, published 2026).

Where only a bound is given, the exact number is not on record here.

The target of this assay is T1, GPR35 (Homo sapiens, UniProt Q9HC97).
T1 construct: expressed in transfected cells; host or cells: CHO-K1 cells co-expressing mitochondrial aequorin and Gα16
T1 sequence (Q9HC97 whole entry): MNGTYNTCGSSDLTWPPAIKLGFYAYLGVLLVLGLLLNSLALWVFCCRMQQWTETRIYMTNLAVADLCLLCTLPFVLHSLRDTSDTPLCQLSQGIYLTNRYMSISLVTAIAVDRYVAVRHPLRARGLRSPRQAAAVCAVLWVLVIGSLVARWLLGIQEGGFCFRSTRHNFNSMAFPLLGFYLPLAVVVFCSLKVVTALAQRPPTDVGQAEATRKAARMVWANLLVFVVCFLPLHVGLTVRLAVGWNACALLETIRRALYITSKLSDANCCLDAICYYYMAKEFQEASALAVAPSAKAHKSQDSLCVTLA
As to the kind of experiment: cellular GPR35 phospho-ERK HTRF assay (inhibition of lodoxamide-induced phospho-ERK signal). It is filed as cell-based. The following applies: GPR35-CHO-K1-mt aequorin-Gα16 cell line; agonist lodoxamide at EC80; read-out: Activity Group (IC50, inhibition of GPR35 agonist-induced phospho-ERK signal). The text has this:
The functional GPR35 assay as described in the accompanying examples measures the ability of GPR35 modulators to inhibit a GPR35 agonist-induced phospho-ERK signal. This is expressed as the concentration of modulator required to reduce the phospho-ERK signal by 50 percent, i.e. the IC50; the signal window being defined as the difference between agonist plus modulator vehicle (no modulator) and agonist vehicle (no agonist) controls.
The functional assay described measures the ability of GPR35 modulators to inhibit a GPR35 agonist-induced phospho-ERK signal. This is expressed as the concentration of modulator required to reduce the phospho-ERK signal by 50 percent, i.e. the IC50; the signal window being defined as the difference between agonist plus modulator vehicle (no modulator) and agonist vehicle (no agonist) controls.
This assay is a cellular GPR35 phospho-ERK homogeneous time resolved fluorescence (HTRF) assay using the GPR35-CHO-K1-mt aequorin-Gα16 cell line. Upon activation of GPR35 with the agonist lodoxamide at EC80 concentration, ERK 1/2 is phosphorylated, and after lysis of the cell membrane, phospho-ERK1/2 (Thr202/Tyr204) is detected in a sandwich assay using two different specific antibodies, one labelled with Eu^3+-cryptate (donor) and the second with d2 (acceptor). When the dyes are in proximity, the excitation of the donor with a light source (laser or flash lamp) triggers a Fluorescence Resonance Energy Transfer (FRET) towards the acceptor, resulting in specific acceptor fluorescence (at 665 nm). The specific signal is directly proportional to the amount of phospho-ERK1/2 (Thr202/Tyr204) in the sample. Compounds that interfere with the levels of phospho-ERK1/2 (Thr202/Tyr204) will result in a low HTRF signal.
What is called IC50 is the midpoint of a concentration-inhibition curve. In the case of `Cc1ncc(-c2cc(C(=O)Nc3ccc(OCCc4ccccc4)cc3)ncn2)cc1C(=O)O` [Example 69, 2-Methyl-5-[6-[[4-(2-phenylethoxy)phenyl]carbamoyl]pyrimidin-4-yl]pyridine-3-carboxylic acid], the IC50 is < 1000 nM.

Regarding `Cc1ncc(-c2ccnc(C(=O)Nc3ccc(OCCc4ccccc4)cc3)c2)cc1C(=O)O` [Example 70, 2-Methyl-5-[2-[[4-(2-phenylethoxy)phenyl]carbamoyl]-4-pyridyl]pyridine-3-carboxylic acid], the IC50 is < 1000 nM.

For `Cc1ncc(-c2cc(C(=O)Nc3ccc(OCCc4ccccc4)cc3)cnn2)cc1C(=O)O` [Example 71, 2-Methyl-5-[5-[[4-(2-phenylethoxy)phenyl]carbamoyl]pyridazin-3-yl]pyridine-3-carboxylic acid], the IC50 lay within 1000 to 10000 nM. In the case of `Cc1ncc(-c2cc(C(=O)Nc3ccc(OCC4CC4)cc3)ccn2)cc1C(=O)O` [Example 72, 5-[4-[[4-(Cyclopropylmethoxy)phenyl]carbamoyl]-2-pyridyl]-2-methyl-pyridine-3-carboxylic acid] it was 1000 to 10000 nM; in that of `Cc1ncc(-c2cc(C(=O)Nc3ccc(OCC4CC4)cc3)c(F)cn2)cc1C(=O)O` [Example 73, 5-[4-[[4-(Cyclopropylmethoxy)phenyl]carbamoyl]-5-fluoro-2-pyridyl]-2-methyl-pyridine-3-carboxylic acid], 1000 to 10000 nM; in that of `Cc1ncc(-c2cc(C(=O)Nc3ccc(COCc4ccccc4)cc3)ccn2)cc1C(=O)O` [Example 74, 5-[4-[[4-(Benzyloxymethyl)phenyl]carbamoyl]-2-pyridyl]-2-methyl-pyridine-3-carboxylic acid], < 1000 nM. In the case of `Cc1cc(C(=O)Nc2ccc(COCc3ccccc3)cc2)cc(-c2cnc(C)c(C(=O)O)c2)n1` [Example 75, 5-[4-[[4-(Benzyloxymethyl)phenyl]carbamoyl]-6-methyl-2-pyridyl]-2-methyl-pyridine-3-carboxylic acid] it was < 1000 nM; in that of `Cc1ncc(-c2cc(C(=O)Nc3ccc(COCc4ccccc4)cc3)c(F)cn2)cc1C(=O)O` [Example 76, 5-[4-[[4-(Benzyloxymethyl)phenyl]carbamoyl]-5-fluoro-2-pyridyl]-2-methyl-pyridine-3-carboxylic acid], < 1000 nM.

Regarding `Cc1ncc(-c2cc(C(=O)Nc3ccc(COCc4ccccc4)c(F)c3)ccn2)cc1C(=O)O` [Example 77, 5-[4-[[4-(Benzyloxymethyl)-3-fluoro-phenyl]carbamoyl]-2-pyridyl]-2-methyl-pyridine-3-carboxylic acid], the 50% inhibitory concentration (IC50) is < 1000 nM. As for `Cc1ncc(-c2cc(C(=O)Nc3ccc(COC4CC4)c(F)c3)ccn2)cc1C(=O)O` [Example 78, 5-[4-[[4-(Cyclopropoxymethyl)-3-fluoro-phenyl]carbamoyl]-2-pyridyl]-2-methyl-pyridine-3-carboxylic acid], the IC50 fell in the range of 1000 to 10000 nM. In the case of `Cc1ncc(-c2cc(C(=O)Nc3ccc(OCC4CC4)c(F)c3)ccn2)cc1C(=O)O` [Example 79, 5-[4-[[4-(Cyclopropylmethoxy)-3-fluoro-phenyl]carbamoyl]-2-pyridyl]-2-methyl-pyridine-3-carboxylic acid], the concentration for half-maximal inhibition (IC50) was 1000 to 10000 nM. In the case of `COc1ccc(-c2cnc(C)c(C(=O)O)c2)cc1C(=O)Nc1ccc(COCc2ccccc2)cc1` [Example 80, 5-[3-[[4-(Benzyloxymethyl)phenyl]carbamoyl]-4-methoxy-phenyl]-2-methyl-pyridine-3-carboxylic acid] it was < 1000 nM; in that of `COc1ccc(C(=O)Nc2ccc(COCc3ccccc3)cc2)cc1-c1cnc(C)c(C(=O)O)c1` [Example 81, 5-[5-[[4-(Benzyloxymethyl)phenyl]carbamoyl]-2-methoxy-phenyl]-2-methyl-pyridine-3-carboxylic acid], < 1000 nM; in that of `Cc1ccc(-c2cnc(C)c(C(=O)O)c2)cc1C(=O)Nc1ccc(COCc2ccccc2)cc1` [Example 82, 5-[3-[[4-(Benzyloxymethyl)phenyl]carbamoyl]-4-methyl-phenyl]-2-methyl-pyridine-3-carboxylic acid], 1000 to 10000 nM. In the case of `Cc1ccc(C(=O)Nc2ccc(COCc3ccccc3)cc2)cc1-c1cnc(C)c(C(=O)O)c1` [Example 83, 5-[5-[[4-(Benzyloxymethyl)phenyl]carbamoyl]-2-methyl-phenyl]-2-methyl-pyridine-3-carboxylic acid] it was < 1000 nM; in that of `Cc1ncc(-c2ccc(F)c(C(=O)Nc3ccc(OCC4CC4)cc3)c2)cc1C(=O)O` [Example 84, 5-[3-[[4-(Cyclopropylmethoxy)phenyl]carbamoyl]-4-fluoro-phenyl]-2-methyl-pyridine-3-carboxylic acid], 1000 to 10000 nM; in that of `Cc1ncc(-c2cc(C(=O)Nc3ccc(COCc4ccccc4)cc3)ccc2F)cc1C(=O)O` [Example 85, 5-[5-[[4-(Benzyloxymethyl)phenyl]carbamoyl]-2-fluoro-phenyl]-2-methyl-pyridine-3-carboxylic acid], < 1000 nM. Under `Cc1ncc(-c2cccc(C(=O)Nc3ccc(COCc4ccccc4)cc3)c2F)cc1C(=O)O` [Example 86, 5-[3-[[4-(Benzyloxymethyl)phenyl]carbamoyl]-2-fluoro-phenyl]-2-methyl-pyridine-3-carboxylic acid] stands 1000 to 10000 nM. As for `Cc1ncc(-c2ccc(F)c(C(=O)Nc3ccc(COCc4ccccc4)cc3)c2F)cc1C(=O)O` [Example 87, 5-[3-[[4-(Benzyloxymethyl)phenyl]carbamoyl]-2,4-difluoro-phenyl]-2-methyl-pyridine-3-carboxylic acid], the half-inhibitory concentration (IC50) was 1000 to 10000 nM.

Turning to `Cc1ncc(-c2ccc(F)c(C(=O)Nc3ccc(COCC4CC4)c(F)c3)c2)cc1C(=O)O` [Example 88, 5-[3-[[4-(Cyclopropylmethoxymethyl)-3-fluoro-phenyl]carbamoyl]-4-fluoro-phenyl]-2-methyl-pyridine-3-carboxylic acid], the half-maximal inhibitory concentration (IC50) was < 1000 nM.

With `Cc1ncc(-c2ccc(F)c(C(=O)Nc3ccc(OCC4CC4)c(F)c3)c2)cc1C(=O)O` [Example 89, 5-[3-[[4-(Cyclopropylmethoxy)-3-fluoro-phenyl]carbamoyl]-4-fluoro-phenyl]-2-methyl-pyridine-3-carboxylic acid], the IC50 is < 1000 nM.

Turning to `Cc1ncc(-c2ccc(F)c(C(=O)Nc3ccc(COCc4ccccc4)c(F)c3)c2)cc1C(=O)O` [Example 90, 5-[3-[[4-(Benzyloxymethyl)-3-fluoro-phenyl]carbamoyl]-4-fluoro-phenyl]-2-methyl-pyridine-3-carboxylic acid], the IC50 was < 1000 nM. Under `Cc1ncc(-c2ccc(F)c(C(=O)Nc3ccc(COC4CC4)c(F)c3)c2)cc1C(=O)O` [Example 91, 5-[3-[[4-(Cyclopropoxymethyl)-3-fluoro-phenyl]carbamoyl]-4-fluoro-phenyl]-2-methyl-pyridine-3-carboxylic acid] stands 1000 to 10000 nM; under `Cc1ncc(-c2ccc(F)c(C(=O)Nc3ccc(OC(C)C4CC4)c(F)c3)c2)cc1C(=O)O` (stereo not drawn) [Example 92, 5-[3-[[4-(1-Cyclopropylethoxy)-3-fluoro-phenyl]carbamoyl]-4-fluoro-phenyl]-2-methyl-pyridine-3-carboxylic acid], < 1000 nM. In the case of `Cc1ncc(-c2ccc(F)c(C(=O)Nc3ccc(OC(C)C4CC4)c(C#N)c3)c2)cc1C(=O)O` (stereo not drawn) [Example 93, 5-[3-[[3-Cyano-4-(1-cyclopropylethoxy)phenyl]carbamoyl]-4-fluoro-phenyl]-2-methyl-pyridine-3-carboxylic acid] it was 1000 to 10000 nM. Under `CSc1ncc(C(=O)Nc2ccc(OCCc3ccccc3)cc2)cc1-c1cnc(C)c(C(=O)O)c1` [Example 94, 2-Methyl-5-[2-methylsulfanyl-5-[[4-(2-phenylethoxy)phenyl]carbamoyl]-3-pyridyl]pyridine-3-carboxylic acid] stands 1000 to 10000 nM. Consider `COCCOc1ncc(C(=O)Nc2ccc(OCCc3ccccc3)cc2)cc1-c1cnc(C)c(C(=O)O)c1` [Example 95, 5-[2-(2-Methoxyethoxy)-5-[[4-(2-phenylethoxy)phenyl]carbamoyl]-3-pyridyl]-2-methyl-pyridine-3-carboxylic acid], for which the IC50 fell in the range of 1000 to 10000 nM. In the case of `Cc1ncc(-c2cccc(C(=O)Nc3ccc(CS(=O)(=O)c4ccc(Cl)cc4)cc3)c2)cc1C(=O)O` [Example 96, 5-[3-[[4-[(4-Chlorophenyl)sulfonylmethyl]phenyl]carbamoyl]phenyl]-2-methyl-pyridine-3-carboxylic acid] it was < 1000 nM. Under `Cc1ncc(-c2cccc(C(=O)Nc3ccc(CS(=O)(=O)c4cccc(Cl)c4)cc3)c2)cc1C(=O)O` [Example 97, 5-[3-[[4-[(3-Chlorophenyl)sulfonylmethyl]phenyl]carbamoyl]phenyl]-2-methyl-pyridine-3-carboxylic acid] stands 1000 to 10000 nM; under `Cc1ncc(-c2cccc(C(=O)Nc3ccc(CS(=O)(=O)c4ccccc4Cl)cc3)c2)cc1C(=O)O` [Example 98, 5-[3-[[4-[(2-Chlorophenyl)sulfonylmethyl]phenyl]carbamoyl]phenyl]-2-methyl-pyridine-3-carboxylic acid], 1000 to 10000 nM.
